{"source": "ChEMBL document CHEMBL5120899", "about": "“Sesquiterpene Lactones from Vernonia tufnelliae: Structural Characterization and Biological Evaluation” (J Nat Prod, 2022)", "tested_on": "HeLa S3", "assay": "Cytotoxicity against human HeLa S3 cells assessed as cell viability incubated for 48 hrs by microscopic analysis", "format": "functional, cell-based", "details": "HeLa S3, 48 h", "data": [{"smiles": "C=C(CO)C(=O)O[C@H]1C/C(C)=C/CC/C(CO)=C/[C@H]2OC(=O)[C@@H](CN[C@H](Cc3ccccc3)C(=O)O)[C@H]12", "values": [{"measurement": "IC50", "result": "> 10", "unit": "µM"}]}, {"smiles": "Oc1ccc(Cc2ccccc2O)cc1", "values": [{"measurement": "IC50", "result": "> 10", "unit": "µM"}]}, {"smiles": "C=C(CO)C(=O)O[C@H]1C/C(C)=C/CC/C(CO)=C/[C@H]2OC(=O)[C@@H](CN[C@@H](C(=O)O)C(C)C)[C@H]12", "values": [{"measurement": "IC50", "result": "> 10", "unit": "µM"}]}, {"smiles": "O=Cc1c[nH]c2ccccc12", "note": "[3-FORMYLINDOLE]", "values": [{"measurement": "IC50", "result": "> 10", "unit": "µM"}]}, {"smiles": "C=C(CO)C(=O)O[C@H]1C/C(C)=C/CC/C(CO)=C/[C@H]2OC(=O)C(=C)[C@H]12", "values": [{"measurement": "IC50", "result": "> 10", "unit": "µM"}]}, {"smiles": "C=C(CO)C(=O)O[C@H]1C/C(C)=C/CC/C(CO)=C/[C@H]2OC(=O)[C@@H](CN[C@H](CC(C)C)C(=O)O)[C@H]12", "values": [{"measurement": "IC50", "result": "> 10", "unit": "µM"}]}, {"smiles": "C=C(CO)C(=O)O[C@H]1C/C(C)=C/CC/C(CO)=C/[C@H]2OC(=O)[C@@H](CN3C[C@@H](CO)[C@]4(O)O[C@H]5C/C(C)=C/CC/C(CO)=C/[C@H]6OC(=O)[C@]4(C3)[C@H]56)[C@H]12", "values": [{"measurement": "IC50", "result": "> 10", "unit": "µM"}]}, {"smiles": "COc1cc2oc(-c3ccc(O)c(O)c3)cc(=O)c2c(O)c1O", "values": [{"measurement": "IC50", "result": "> 10", "unit": "µM"}]}, {"smiles": "C=C[C@@]1(C)C[C@@H](OC(=O)C(=C)CO)[C@H](C(=C)C(=O)OC/C2=C\\[C@H]3OC(=O)C(=C)[C@@H]3[C@@H](OC(=O)C(=C)CO)C/C(C)=C/CC2)[C@@H](O)[C@@H]1C(=C)CO", "values": [{"measurement": "IC50", "result": "> 10", "unit": "µM"}]}, {"smiles": "Oc1ccc(Cc2ccc(O)cc2)cc1", "values": [{"measurement": "IC50", "result": "> 10", "unit": "µM"}]}, {"smiles": "O=c1cc(-c2ccc(O)c(O)c2)oc2cc(O[C@@H]3O[C@H](CO)[C@@H](O)[C@H](O)[C@H]3O)cc(O)c12", "note": "[GALUTEOLIN]", "values": [{"measurement": "IC50", "result": "> 10", "unit": "µM"}]}, {"smiles": "O=c1cc(-c2ccc(O)cc2)oc2cc(O)cc(O)c12", "note": "[APIGENIN]", "values": [{"measurement": "IC50", "result": "> 10", "unit": "µM"}]}, {"smiles": "O=c1cc(-c2ccc(O)cc2)oc2cc(O[C@@H]3O[C@H](CO)[C@@H](O)[C@H](O)[C@H]3O)cc(O)c12", "note": "[APIGETRIN]", "values": [{"measurement": "IC50", "result": "> 10", "unit": "µM"}]}]}
